Measurements reported in patent EP1001774B1, “USE OF PHOSPHOLAMBAN INHIBITORS FOR INCREASING CORONARY FLOW” (ORION CORPORATION, priority 1997, dated 1999).
Entries after “also recorded” stand apart in the source; their conditions may differ.

Legend:
phospholamban = biological target: T1, phospholamban (Cavia porcellus, UniProt A0A286XLC6); test: Calcium uptake assay (fluo-3) in SR vesicles from cardiac tissue; assay type: biochemical, guinea-pig; conditions: 50 and 100 µM; Figure 2A; three experiments per group
T1 construct: calcium uptake into the SR vesicles prepared from cardiac tissue; from tissue; host or cells: guinea-pig heart (ventricular myocardium), SR vesicle preparation
T1 sequence (A0A286XLC6 1-52): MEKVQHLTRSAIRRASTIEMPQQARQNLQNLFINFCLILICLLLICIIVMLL
Excerpt: (§1) The direct binding of a compound to the phospholamban protein can be ascertained by the circular dichroism (CD) spectroscopy. The methods for determining whether a compound relieves the inhibitory effect of phospholamban on SR Ca^2+-ATPase by direct binding to the phospholamban protein, i.e. is a phospholamban inhibitor, are illustrated in detail in the experimental section.
(§2) The effect on phospholamban of the compounds used in the invention was verified by measuring its effects on calcium uptake into the SR vesicles prepared from cardiac tissue and into vesicles prepared from fast skeletal muscle (psoas m.). […] The methods are described below in detail.
(§3) Guinea pigs (10-12) were decapited. Their hearts or the psoas muscles were excised, washed in ice-cold 0.9 % NaCl and cut into pieces in a buffer containing 20 mM Tris-maleate, 0.3 M sucrose, pH 7.0. Thereafter tissue pieces were homogenized with Polytron and further with Potter (10 strokes). The homogenate was centrifugated at 1000 g for 15 min at 4 °C. The supernatant was collected and the pellet was resuspended into 5 ml of the buffer (20 mM Tris-maleate, 0.3 M sucrose, pH 7.0) and recentrifugated at 1000 g for 10 min at 4 °C. The obtained supernatant was combined with the earlier collected supernatant and centrifugated once again at 10 000 g for 20 min at 4 °C. The final supernatant was filtered into a bottle equipped with a magnetic stirrer. KCl was added to the filtered supernatant to achieve the final concentration of 0.6 M (at 4 °C). The obtained solution was centrifugated at 100 000 g for 60 min at 4 °C. The pellet was suspended in 5 ml of the buffer containing 20 mM Tris-maleate, 0.3 M sucrose, pH 7.0 and centrifugated at 100 000 g for 60 min at 4 °C. The obtained pellet was suspended in 5 ml of buffer containing 20 mM Tris-maleate, 0.3 M sucrose, 0.1 M KCI, pH 7.0 and stored at -80 °C until use. The protein concentration was also measured in order to standardise the separately prepared vesicle preparations.
(§4) In the calcium uptake assay, the fluorescent indicator, fluo-3 was used to detect the decrease of the extravesicular Ca^2+-concentration, when the SR Ca^2+ATPase was transferring Ca^2+ from the extravesicular space into the SR-vesicles.
(§5) The SR-vesicles obtained above (50 µg protein/ml) were preincubated with or without the test compound at 37 °C for 5 min in the assay buffer containing 40 mM imidazole, 95 mM KCI, 5 mM NaN3, 5 mM MgCl2, 0.5 mM EGTA, 5 mM potassium oxalate, 2 µM ruthenium red, 5 µM fluo-3, pH 7.0. The free calcium was adjusted to 0.1 µM or to 0.04 µM by CaCl2. The reaction was initiated by adding ATP (5 mM). The final reaction volume was 1.5 ml. The fluorescence of reaction mixture was measured for 3 min by using the excitation and emission wavelengths of 510 nm and 530 nm, respectively.

[1] = biological target: T2, PLB[1-36 a.a.](Ser16PO3-, Thr17PO3-) (Homo sapiens, UniProt P26678); test: Circular dichroism (CD) spectroscopy, binding to double phosphorylated phospholamban fragment; conditions: 50 µM in water, Fig. 1
T2 construct: (PLB [1-36 a.a.](Ser16PO3-, Thr17PO3-)); made in house; host or cells: chemical peptide synthesis (no expression host)
T2 sequence (P26678 1-36): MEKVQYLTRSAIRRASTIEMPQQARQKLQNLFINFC
Method: (§6) Both the 36 amino acid N-terminal fragment of human phospholamban (PLB [1-36 a.a.]) and the 36 amino acid N-terminal fragment of double phosphorylated human phospholamban (PLB [1-36 a.a.](Ser16PO3-, Thr17PO3-)) were obtained by peptide synthesis. The peptides were purified by reverse phase HPLC, analysed for homogenity by mass spectrometry and were found pure at 97 %. The peptides were lyophilized and then resuspended in water at the final concentration of 0.1 mM, for CD analysis. The pH of both solutions was between 3 and 4 and was not further adjusted. Compound of Example 1c was solved in water at a final concentration of 0.1 mM. The pH was adjusted at 7.2 by adding 1 N NaOH.
(§7) Circular dichroism spectra were acquired at 24 °C on samples of 100 µl. The spectra were recorded on a Jasco J-720 spectropolarimeter using a 1 mm path-length quartz cuvette. The band width was 1 nm, the sensitivity 20 mdeg, the step resolution 0.5 nm, the response time 0.5 sec, and the scan speed 20 nm/min (from 250 to 190 nm). The spectra were expressed in [θ] x 10^-3 x degrees x cm^2 x dmol^-1.

[2] = system: endothelial cells of the coronary vessels; test: Coronary flow in freely beating isolated heart with and without Triton x 100 destruction of endothelial cells; set-up: species or system guinea-pig; conditions: 0.3 - 30 µM; Figures 4A and 4B
Method: Substance P, an endothelial-dependent vasodilator, was used as a reference compound. Triton x 100 was used to destroy the endothelial cells of the coronary vessels.
The experiment was carried out under constant pressure condition (50 mmHg) on freely beating heart. Coronary flow (ml / min) was continuously recorded by an electromagnetic flow meter with a flow probe inserted above the aortic cannula.
After 15 min baseline recording a bolus dose of substance P (0.1 µM / 0.3 ml) was added to the perfusion buffer via a side branch of the aortic cannula (Figure 4B). The addition of substance P was repeated twice before the injection of triton x 100 (0.05% / 0.2 ml) was given via a needle inserted into the cannula just above the aorta. After 85 min of triton x 100 injection a control dose of substance P was added twice to the perfusion buffer in order to check if the endothelial cells has destroyed. Thereafter the concentration range of 0.3 - 30 µM of the compound of Example 1c was tested. The vehicle concentration (0.1% DMSO) was kept constant throughout the experiment. A control experiment is shown in Figure 4A where the effect of Example 1 c is seen at the same concentration range when the […] is not disrupted by Triton x 100.

PLB[1-36 a.a.] = biological target: T3, PLB[1-36 a.a.] (Homo sapiens, UniProt P26678); test: Circular dichroism (CD) spectroscopy, binding to the cytosolic part of phospholamban; conditions: 50 µM in water, Fig. 1
T3 construct: N-terminal fragment of human phospholamban (PLB [1-36 a.a.]); made in house; host or cells: chemical peptide synthesis (no expression host)
T3 sequence (P26678 1-36 limits assumed): T2 sequence (P26678 1-36)
Method: as §6, §7

coronary arteries = test: Coronary flow in isolated paced heart (Langendorff, constant pressure); set-up: species or system guinea-pig; conditions: 0.3 - 30 µM; six hearts paced at 250 beats/min; Figure 3A
Method: Guinea-pigs of either sex weighing 300-400 g were used in the study. After the guinea-pig was sacrificed by a blow on the skull and decapitated the heart was rapidly excised. The heart was then rinsed in cold oxygenated perfusion buffer. A cannula was inserted into the aorta and secured with a ligature. Retrograde perfusion began as soon as the heart was placed in a thermostatically controlled moist chamber of the Langendorff apparatus. Modified Tyrode solution (37 °C), equilibrated in a thermostatically controlled bulb oxygenator with carbogen (95 % O2 and 5% CO2) was used as a perfusion buffer. The composition of the Tyrode solution was (in mM): NaCl 135; MgCl2 x 6H2O 1; KCl 5; CaCl2 x 2H2O 2; NaHCO3 15; Na2HPO4 x 2H2O 1; glucose 10; pH 7.3-7.4. The experiments were carried out under constant pressure condition (50 mmHg). After a short prestabilization (10 min) a latex balloon (size 4) was carefully placed into the left ventricle through the left pulmonary vein and the left atrium. The latex balloon was attached to a stainless-steel cannula coupled with a pressure transducer. The latex balloon, the cannula and the chamber of the pressure transducer were filled with ethylene glycol / water (1:1) mixture avoiding any air-bubble. The isovolumetric left ventricular pressure was recorded through the pressure transducer. The maximal positive and negative derivatives of the left ventricular pressure were calculated by using the digitized pressure signals. At the beginning of the experiment, the volume of the balloon was adjusted to obtain a diastolic pressure of approximately 5 mmHg. Coronary flow (ml/min) was continuously recorded by an electromagnetic flow meter with a flow probe inserted above the aortic cannula. The heart was paced at 250 beats/min with a coaxial electrode localized on the surface of the right atrium. Before starting the experiment, the heart was allowed to stabilise further for 30 - 50 min with vehicle (0.1% DMSO) to reach a stable coronary flow.
After 15 min baseline recording various concentrations of the test compound of Example 1c were added to the perfusion buffer at 15 min intervals. The concentration range of 0.3 - 30 µM was tested. The vehicle concentration (0.1% DMSO) was kept constant throughout the experiment.

SR Ca^2+-ATPase = test: Calcium uptake assay (fluo-3) in SR vesicles from fast skeletal muscle (psoas m.), which contain no phospholamban; assay type: biochemical, guinea-pig; conditions: 50 and 100 µM; Figure 2B; three experiments per group
Excerpt: as §1, §2, §3, §4, §5

Cc1c(Cc2ccccc2)c(=O)oc2cc(OCc3nnn[nH]3)cc(OCc3nnn[nH]3)c12 [Example 1c, 3-Benzyl-5,7-bis[(1H -tetrazol-5-yl)methoxy]-4-methyl-2H-1-benzopyran-2-one]
Ca^2+ uptake rate into the cardiac SR vesicles (phospholamban): accelerated the calcium uptake into the cardiac SR vesicles
interaction with PLB[1-36 a.a.](Ser16PO3-, Thr17PO3-) (CD spectra) [1]: does not interact or interacts weakly with the phosphorylated phospholamban
mechanism of the vasodilatory effect (coronary flow with / without Triton x 100) [2]: due to an endothelial-mediated mechanism
interaction with PLB[1-36 a.a.] (CD spectra) (PLB[1-36 a.a.]): forms a complex with PLB at their N-terminal domain; also recorded: interacts with the cytosolic part of phospholamban PLB[1-36 a.a.]
coronary flow (coronary arteries): increase in coronary flow
Ca^2+ uptake rate into the fast skeletal muscle SR vesicles (SR Ca^2+-ATPase): did not change the calcium uptake
